Data taken from the NIST ThermoML archive (doi:10.1021/je100864e).

Experiment: osmotic coefficient (dimensionless); mn = molality of the nth substance listed, in mol/kg
Conditions: 298.15 K, Liquid, isopiestic method

O=C([O-])CC(O)(CC(=O)O)C(=O)O.[Na+] [sodium dihydrogen citrate] + O
Conditions	osmotic coefficient
m1 = 0.3252	0.849
m1 = 0.4619	0.829
m1 = 0.5944	0.82
m1 = 0.7158	0.803
m1 = 0.7377	0.81
m1 = 0.7458	0.805
m1 = 0.7565	0.801
m1 = 0.7666	0.798
m1 = 0.78	0.81
m1 = 0.9089	0.801
m1 = 1.096	0.813

O=C([O-])CC(O)(CC(=O)[O-])C(=O)O.[Na+].[Na+] [disodium hydrogen citrate] + O
Conditions	osmotic coefficient
m1 = 0.2817	0.806
m1 = 0.2939	0.792
m1 = 0.3096	0.77
m1 = 0.3227	0.773
m1 = 0.3856	0.759
m1 = 0.4011	0.753
m1 = 0.4258	0.75
m1 = 0.4592	0.724
m1 = 0.4761	0.726
m1 = 0.4822	0.728
m1 = 0.5501	0.714
m1 = 0.6381	0.71
m1 = 0.6827	0.706
m1 = 0.6915	0.705
m1 = 0.6951	0.707
m1 = 0.6997	0.708
m1 = 1.018	0.689
m1 = 1.09	0.688
m1 = 1.107	0.682
m1 = 1.246	0.688
m1 = 1.329	0.682
m1 = 1.579	0.694
m1 = 1.635	0.694
m1 = 1.659	0.69
m1 = 1.731	0.69
m1 = 1.788	0.701
m1 = 1.928	0.702
m1 = 1.934	0.693
m1 = 2	0.704
m1 = 2.327	0.711
m1 = 2.393	0.712
m1 = 2.439	0.711
